Usually melting point stands for the temperature, or range, at which the solid turns liquid.

Bounds are passed on as bounds.

With `COC(=O)c1cc2ccnc(NCc3ccccc3)c2[nH]1`, the melting point lay in the range of 154 to 155 °C. As for `CCCCC(=O)Nc1cscc1N`, the melting point amounted to 110 °C. As to `COc1cccc(N)c1C(=O)NC1CCN(C(C)CC(C(=O)N(C)C)(c2ccccc2)c2ccccc2)CC1O` (configuration not stated), the melting point was determined as 175 °C. Molecule `COc1ccc2oc(Cc3cc(C(F)(F)F)cc(C(F)(F)F)c3)c(CC#N)c2c1` had a melting point of 112 °C.

Molecule `CC(=O)OCC1OC(SCCCc2ccccc2)C(OC(C)=O)C(OC(C)=O)C1OC(C)=O` (configuration not stated) showed a melting point of 73 to 74 °C. Molecule `CCCCCCCc1ccc(-c2ncc(C#N)cn2)cc1` registered a melting point of 96.3 °C. To `COc1ccc(-n2cnnc2SC)cc1` belongs 172 °C; to `COc1cc2cc3c(Nc4ccc(Sc5nccn5C)c(Cl)c4)c(C#N)cnc3cc2cc1OCCn1nccn1`, 235 to 237 °C. The molecule `CCNC(=O)NCC1CC1c1cccn2nc(C)cc12` (configuration not stated) returned a melting point of 108 to 110 °C. For `O=C(O)c1ccc(-c2cccc([N+](=O)[O-])c2)[nH]c1=O`, the melting point was 303 to 304 °C. With `Cc1ncc(C#N)c(Nc2ccc3[nH]ccc3c2C)c1I`, the melting point fell in the range of 222 to 223 °C. The molecule `Cc1ccccc1-c1c(NC(=O)Nc2ccc(F)cc2F)c(=O)oc2c(F)cc(F)cc12` gave a melting point of 220 to 221 °C. `c1ccc2c(c1)nc(N1CCOCC1)c1c(-c3noc(C4CC4)n3)ncn12`: the melting point is 169 to 173 °C. Regarding `Nc1ccc(/C=C/C(=O)CC(=O)/C=C/c2ccc(O)cc2)cc1`, the melting point is 212 to 217 °C. To `CCOc1c(C)c(C)c(OC)c(CN(C)CCOc2cc(C)ccc2C(C)C)c1C` belongs 115 to 120 °C; to `Cn1nnc(-c2ccc(-c3nnn(C)n3)nc2)n1`, 225 to 226 °C. `COc1cc(Nc2c(C#N)cnc3cc(-c4ccc(C=O)cc4)sc23)cc(OC)c1OC` showed a melting point of 268 to 270 °C. With `CCOC(=O)c1sc(N2CCN(Cc3ccccc3)C2=O)nc1C`, the melting point was in the range of 122 to 124 °C.

As to `O=C(NC1N=C(c2ccccc2F)c2ccccc2NC1=O)c1ccc[nH]1` (racemic), the melting point lay within 271 to 274 °C. The same measure for `Oc1ccc(CCCc2ccc(O)cc2O)cc1`: 92 to 93 °C; for `COc1nc(Cl)cc2nccn12`: 115 to 118 °C; for `CCCC[C@H](CO)C(=O)NOCc1ccccc1`: 100 to 102 °C. Take `CC(C)NN(C[C@@H](O)[C@H](Cc1ccccc1)NC(=O)OCc1ccccc1)C(=O)OC(C)(C)C`: the melting point is 118 to 120 °C. Consider `CCc1nc2c(N)nc3cc(OCc4ccc(S(=O)(=O)NCCc5cc6ccccc6[nH]5)cc4)ccc3c2s1`, for which the melting point was 100 to 101 °C. `CC(C)n1nc(-c2sc(NC(=O)c3cc(C(F)(F)F)cc(C(F)(F)F)c3)nc2-c2ccccc2)ccc1=O` came in with a melting point of 207 to 208 °C. As to `O=C(O)Cc1cc(C(=O)c2ccccc2F)ccc1O`, the melting point worked out at 102 °C. On to `CCOCCc1c(N=[N+]=[N-])nc(NC(=O)NC)nc1-c1ccccc1`, for which the melting point is 128 to 130 °C. On to `OC(COc1ccc(-n2cncn2)cc1)CN1CCN(c2ccc(F)cc2)CC1` (configuration not stated), for which the melting point was in the range of 149 to 150 °C. On to `O=C(O)CCCCCCC1C(=O)CCC1=O`, for which the melting point was in the range of 131 to 141 °C. With `CCCCc1ncc(CC(Cc2ccccc2)C(=O)O)n1Cc1ccc(C(=O)O)cc1` (configuration not stated), the melting point was in the range of 120 to 124 °C. In the case of `C=C(C)Cc1cc(C=O)cc(OC)c1O`, the melting point fell in the range of 53 to 54 °C.

The molecule `CNC(=O)c1cccc(NC(=O)Cc2cc(OC)cc(OC)c2)c1` yielded a melting point of 146 to 147 °C. `O=C1OC(c2ccccc2)N=C1CCCNC(=O)c1ccccc1` (configuration not stated) displayed a melting point of 135 to 138 °C. On to `CCOC(=O)c1cnc2c(c1O)CCCCCCCC2`, for which the melting point lay within 212 to 230 °C.

`COc1ccc(-c2cc(=S)ss2)cc1`: the melting point was in the range of 110 to 111 °C. Consider `COC(=O)c1cccc2nc(N3CCOCC3)n(Cc3ccc(-c4ccccc4)c(-c4nnn[nH]4)c3)c12`, for which the melting point is 163 to 167 °C. In turn, `Cc1cc(S(N)(=O)=O)ccc1NC(=O)CCl` showed a melting point of 193 to 194 °C. As for `CCc1nc2c(N)nc3cc(/C=C/C(=O)N(C)C)ccc3c2n1CC1CCOCC1`, the melting point is greater than 260 °C.

For the molecule `O=[N+]([O-])c1cccc(NN=C(c2ccc(O)cc2)c2ccc(O)cc2)c1`, the melting point was 160 to 162 °C. `COC(=O)C(C)c1ccc2c(=O)c3ccccc3ccc2c1` (configuration not stated) gave a melting point of 37 to 39 °C. Take `COC(=O)C(C)(COS(C)(=O)=O)C(=O)c1ccc(Cl)cc1` (configuration not stated): the melting point was 85 to 86 °C. Turning to `CC1(C)Oc2ccc(S(=O)(=O)c3ccccc3)cc2C(N)C1O` (configuration not stated), the melting point was 160 to 163 °C.

`Cc1cnn(CC(=O)O)c1OCCCc1cn(-c2ccc(C(F)(F)F)cn2)nc1C(C)C` yielded a melting point of 123 to 124 °C. The molecule `Cc1cc(NS(C)(=O)=O)cc(C)c1S(=O)(=O)C[N+](=O)[O-]` displayed a melting point of 138 to 140 °C.

Molecule `COc1ccc(CCNC(=O)Cc2ccc(OC)c(OC)c2)cc1OC` had a melting point of 125 °C.

In the case of `CCOC(=O)CCC(=O)c1cnc2c(OC)cccc2c1Nc1ccccc1C`, the melting point is 210 to 211 °C. In turn, `NC(=S)c1ccccc1Nc1cccc(C(F)(F)F)c1` returned a melting point of 106 to 108 °C. On to `OCc1cc(I)ccc1F`, for which the melting point was determined as 42 °C. `COC(=O)C1C(=O)CCN(N2CCCCC2)C1=O` (configuration not stated) yielded a melting point of 157 to 159 °C. `CS(=O)CC(=NC1CCCCC1)c1ccccc1O` (configuration not stated) returned a melting point of 133 to 134 °C. In turn, `CC1(CN2CCN(C(=O)NCC=Cc3ccc(C(F)(F)F)cc3)CC2)Cn2cc([N+](=O)[O-])nc2O1` (configuration not stated) showed a melting point of 105 to 107 °C. To `O=C(O)CCc1cc2c(Cl)c(Cl)ccc2n1S(=O)(=O)c1ccccc1` belongs 220 °C.

The molecule `CC(CC(=O)O)n1nnnc1S` (configuration not stated) yielded a melting point of 169 to 172 °C. The molecule `Cc1ccc(C(=O)/C=C/C(=O)O)o1` had a melting point of 159 to 162 °C. The molecule `NCc1ccccc1C1CCN(c2cc3c(cc2F)c(=O)c(C(=O)O)cn3C2CC2)C1` (configuration not stated) had a melting point of 245 to 247 °C.

Take `O=C1NC(=O)C(=Cc2ccc(-c3cc(C4CCCCC4)c4oc(C(Cl)(Cl)Cl)nc4c3)nc2)S1`: the melting point came to 253 °C.

Molecule `NC(=O)N[C@H]1CC[C@H](NC(N)=O)CC1` gave a melting point greater than 320 °C. `O=[N+]([O-])c1ccccc1NC(CO)c1c(Cl)cccc1Cl` (configuration not stated) yielded a melting point of 128 °C. The same measure for `COc1ccc(S(=O)(=O)C(C)(Cc2ccc(OCCN3CCCCC3)cc2)C(=O)NO)cc1` (configuration not stated): 98 °C; for `COc1cccc(-n2c(-c3sc(NC(=O)c4ccccc4)nc3-c3ccccc3)nc3ccccc3c2=O)c1`: 195 to 196 °C; for `CN(C(=O)COc1nc(C(Cl)(Cl)Cl)ns1)C1=CCCCC1`: 78 °C. `COc1c(C)c(C)c(OC)c(C(O)(c2ccc(N3CCOCC3)cc2)C(C)C)c1C` (configuration not stated) displayed a melting point of 191 to 193 °C.

With `Cn1c(CCN2CCN(c3ccccc3)CC2)nc2c3ccccc3ccc21`, the melting point lay in the range of 153 to 155 °C. Regarding `CCCCCCC(=O)N[C@@H]1N=C(c2ccccc2)c2ccccc2N(C)C1=O`, the melting point lay in the range of 49 to 54 °C. For `CNC(=O)[C@@H](C[C@H](O)[C@H](CC1CCCCC1)NC(=O)[C@H](Cc1cscn1)NC(=O)OC(C)(C)C)C(C)(C)O`, the melting point was in the range of 203 to 205 °C. Turning to `CC(=O)Nc1ccc(F)c(N2CCN(C(C)=O)CC2)n1`, the melting point is 178 to 180 °C. The same measure for `ON=C1CCC(c2ccc(Cl)cc2)c2ccccc21` (configuration not stated): 150 to 154 °C; for `O=[N+]([O-])c1ccc(Cl)c(CN2CCCCC2)c1Cl`: 67 to 68 °C; for `COc1ccc(C)cc1NC(=O)Nc1ccc(N2CCN(C(=O)Nc3ncccc3C)CC2)cc1`: 209 to 211 °C. Consider `O=c1c2ccccc2oc2cc(-c3nnn[nH]3)ccc12`, for which the melting point is 296 °C. Molecule `NCCNS(=O)(=O)c1cc(NC(=O)c2cnn3c(C(F)F)cc(-c4ccc(C(F)(F)F)cc4)nc23)c(Cl)s1` had a melting point of 150 °C.

For `CC(=O)OC(C)c1nc2c(C(F)(F)F)cccc2c(O)c1C(=O)Nc1nccs1` (configuration not stated), the melting point amounted to 262 °C. `Cc1nn(C)c2nc(N)c(-c3ccc(F)cc3)nc12` had a melting point of 208 to 210 °C. `O=C(O)Cn1cc(C(=O)O)c(=O)c2cccc(Br)c(=O)c21` had a melting point of 173 to 175 °C.

Regarding `Cc1cc(C2=NOC(c3cc(Cl)cc(Cl)c3)(C(F)(F)F)C2)ccc1C(=O)Nc1ncc(Cl)cn1` (configuration not stated), the melting point lay within 137 to 141 °C. Take `COC(=O)C(C)NC(=O)C1CCCN1C(=O)OCc1ccccc1` (configuration not stated): the melting point lay in the range of 45 to 49 °C. To `CCOC(=O)c1cccc2c(=O)cc(-c3ccc(OCc4ccc5ccccc5c4)cc3)oc12` belongs 245 to 249 °C; to `CC(C)c1nn(-c2ccc(C(F)(F)F)cn2)cc1CCCOc1ccccc1CC(=O)O`, 132 to 133 °C; to `CC(C)(C)NC(=O)N1CCc2cc(S(=O)(=O)n3cc(-c4ccccc4)[nH]c3=O)ccc21`, 222 to 223 °C.

In the case of `O=C(Nc1ccc(Cl)cc1)c1ccccc1F`, the melting point lay within 94.5 to 96.2 °C. `COc1cc2c(cc1OC)Sc1ccccc1C(Cl)C2` (configuration not stated) displayed a melting point of 155 to 160 °C. Molecule `CCOC(=O)C(=Cc1cccn2cc(C(C)(C)C)nc12)N=[N+]=[N-]` showed a melting point of 108 to 110 °C. The same measure for `CC(C)(C)OC(=O)N1CCN(Cc2ccccc2)C(=O)C1`: 89 to 90 °C.

Take `O=C(O)CCCCCC[C@H]1CC[C@@H](O)CC1`: the melting point lay within 75 to 79 °C.

Turning to `Cc1cccc(-c2n[nH]cc2-c2ccnc(-c3ccc(C#N)cc3)c2)n1`, the melting point came out at 198 °C. On to `CC1C(=O)N2CCCC(C(=O)OC(C)(C)C)N2C1=O` (configuration not stated), for which the melting point lay in the range of 127 to 128 °C. The same measure for `CCOC(=O)COc1ccc2nc(CC)cc(OCc3ccc(-c4ccccc4-c4nnn(C(c5ccccc5)(c5ccccc5)c5ccccc5)n4)cc3)c2n1`: 146 to 150 °C.
